System: human monocyte stimulated cytokine production (TNF-α)
Test: Monocyte assay (LPS-stimulated TNF-α production)
Type: cell-based
Settings: 300 nM, human monocytes, LPS
Procedure: Effect of IKK-β inhibition on human monocyte stimulated cytokine production was assessed as follows: Monocytes were isolated from heparinized whole blood by Ficoll gradient, followed by purification of CD14+ cells using MACS magnetic cell separation beads. Isolated monocytes were then adhered to 96-well culture plates at 1×10^6 cells/mL in RPMI 1640 10% FBS (JRH Biosciences, Lenexa Kans.) for 2 h. Test compounds are added to the wells 30 minutes prior to stimulation with a final vehicle concentration of 0.1% DMSO. Monocytes were activated by the addition of 200 ng/mL endotoxin (LPS; E. coli serotype 026:B6) (Sigma, St. Louis, Mo.) and incubated for 24 hrs at 37 C. Cell-free supernates were analyzed by Alphascreen™ (Perkin Elmer, Waltham, Mass.) for TNF-α using R&D Systems matched pair Abs. Viability of the cells was determined by 10% trypan blue exclusion.

| Structure (SMILES) | inhibition at 0.3 µM |
| --- | --- |
| CN(CCOC(C)(C)C)Cc1cc(-c2cc(C(N)=O)c3[nH]cc(C4CCS(=O)(=O)CC4)c3c2)cs1 [Example 77, 5-(5-{[{2-[(1,1-Dimethylethyl)oxy]ethyl}(methyl)amino]methyl}-3-thienyl)-3-(1,1-dioxidotetrahydro-2H-thiopyran-4-yl)-1H-indole-7-carboxamide] | 0 to 100% |
| NC(=O)c1cc(-c2csc(CN3CCCCCC3)c2)cc2c(C3CC4CCC(C3)S4(=O)=O)c[nH]c12 (stereo not drawn) [Example 208, 3-[(3-exo)-8,8-Dioxido-8-thiabicyclo[3.2.1]oct-3-yl]-5-[5-(hexahydro-1H-azepin-1-ylmethyl)-3-thienyl]-1H-indole-7-carboxamide] | 0 to 100% |
| CC1(C)CC(c2c[nH]c3c(C(N)=O)cc(-c4csc(CN5CCCCCC5)c4)cc23)CCS1(=O)=O (stereo not drawn) [Example 231, 3-(2,2-Dimethyl-1,1-dioxidotetrahydro-2H-thiopyran-4-yl)-5-[5-(hexahydro-1H-azepin-1-ylmethyl)-3-thienyl]-1H-indole-7-carboxamide] | 0 to 100% |
| CC(C)[C@H]1C[C@H](c2c[nH]c3c(C(N)=O)cc(-c4ccccc4)cc23)CCS1(=O)=O (racemic) [Example 242, racemic-3-[(trans)-2-(1-Methylethyl)-1,1-dioxidotetrahydro-2H-thiopyran-4-yl]-5-phenyl-1H-indole-7-carboxamide] | 0 to 100% |
| NC(=O)c1cc(-c2ccoc2)cc2c(C3CCCS(=O)(=O)C3)c[nH]c12 (stereo not drawn) [Example 217, 3-(1,1-Dioxidotetrahydro-2H-thiopyran-3-yl)-5-(3-furanyl)-1H-indole-7-carboxamide] | 0 to 100% |
| CC(C)[C@H]1CC(c2c[nH]c3c(C(N)=O)cc(-c4ccoc4)cc23)CCS1(=O)=O (mixture of isomers) [Example 243, (mixture of isomers)-5-(3-Furanyl)-3-[trans-2-(1-methylethyl)-1,1-dioxidotetrahydro-2H-thiopyran-4-yl]-1H-indole-7-carboxamide] | 0 to 100% |
| NC(=O)c1cc(-c2ccccc2)cc2c(C3CC4CCC(C3)S4(=O)=O)c[nH]c12 (stereo not drawn) [Example 192, 3-[(3-endo)-8,8-Dioxido-8-thiabicyclo[3.2.1]oct-3-yl]-5-phenyl-1H-indole-7-carboxamide] | 0 to 100% |

Same assay, conditions: human CD14+ monocytes, 200 ng/mL LPS, 24 hrs, values given as 'about', read-out: pIC50 in the monocyte assay (converted)

| IC50 | Structure (SMILES) |
| --- | --- |
| 0.00501 to 1 µM | NC(=O)c1cc(-c2csc(CN3CCCC3)c2)cc2c(C3CCS(=O)(=O)C3)c[nH]c12 (stereo not drawn) [Example 187, 3-(1,1-Dioxidotetrahydro-3-thienyl)-5-[5-(1-pyrrolidinylmethyl)-3-thienyl]-1H-indole-7-carboxamide] |
| 0.00501 to 1 µM | NC(=O)c1cc(-c2ccco2)cc2c([C@H]3CCS(=O)(=O)[C@@H](c4ccccc4)C3)c[nH]c12 (racemic) [Example 251, 3-(1,1-Dioxido-2-phenyltetrahydro-2H-thiopyran-4-yl)-5-(2-furanyl)-1H-indole-7-carboxamide] |
| > 1 µM | NC(=O)c1cc(-c2nc(Br)cs2)cc2c(C3CCS(=O)(=O)CC3)c[nH]c12 [Example 83, 5-(4-Bromo-1,3-thiazol-2-yl)-3-(1,1-dioxidotetrahydro-2H-thiopyran-4-yl)-1H-indole-7-carboxamide] |
| 0.00501 to 1 µM | CC(C)[C@@H]1C[C@H](c2c[nH]c3c(C(N)=O)cc(-c4ccsc4)cc23)CCS1(=O)=O (racemic) [Example 246, (racemic)-3-[cis-2-(1-Methylethyl)-1,1-dioxidotetrahydro-2H-thiopyran-4-yl]-5-(3-thienyl)-1H-indole-7-carboxamide] |
| > 1 µM | NC(=O)c1cc(-c2ccsc2)cc2c([C@H]3CCS(=O)(=O)[C@@H](c4ccccc4)C3)c[nH]c12 [Example 248, 3-[(2R,4S)1,1-dioxido-2-phenyltetrahydro-2H-thiopyran-4-yl]-5-(3-thienyl)-1H-indole-7-carboxamide] |
| 0.00501 to 1 µM | CN(C)Cc1cc(-c2cc(C(N)=O)c3[nH]cc(C4CCS(=O)(=O)CC4)c3c2)cs1 [Example 73, 5-{5-[(Dimethylamino)methyl]-3-thienyl}-3-(1,1-dioxidotetrahydro-2H-thiopyran-4-yl)-1H-indole-7-carboxamide] |
| 0.00501 to 1 µM | NC(=O)c1cc(-c2ccc(S(=O)(=O)N3CCC3)s2)cc2c(C3CCS(=O)(=O)CC3)c[nH]c12 [Example 81, 5-[5-(1-Azetidinylsulfonyl)-2-thienyl]-3-(1,1-dioxidotetrahydro-2H-thiopyran-4-yl)-1H-indole-7-carboxamide] |
| 0.00501 to 1 µM | NC(=O)c1cc(-c2ccc3[nH]ncc3c2)cc2c(C3CCS(=O)(=O)CC3)c[nH]c12 [Example 82, 3-(1,1-Dioxidotetrahydro-2H-thiopyran-4-yl)-5-(1H-indazol-5-yl)-1H-indole-7-carboxamide] |
| 0.00501 to 1 µM | CC(C)(O)CCc1ccc(-c2cc(C(N)=O)c3[nH]cc(C4CCS(=O)(=O)CC4)c3c2)s1 [Example 66, 3-(1,1-Dioxidotetrahydro-2H-thiopyran-4-yl)-5-[5-(3-hydroxy-3-methylbutyl)-2-thienyl]-1H-indole-7-carboxamide] |
| 0.00501 to 1 µM | CCN(C)Cc1cc(-c2cc(C(N)=O)c3[nH]cc(C4CCS(=O)(=O)CC4)c3c2)cs1 [Example 75, 3-(1,1-Dioxidotetrahydro-2H-thiopyran-4-yl)-5-(5-{[ethyl(methyl)amino]methyl}-3-thienyl)-1H-indole-7-carboxamide] |
| 0.00501 to 1 µM | NC(=O)c1cc(-c2ccccc2)c(F)c2c(C3CCS(=O)(=O)CC3)c[nH]c12 [Example 169, 3-(1,1-Dioxidotetrahydro-2H-thiopyran-4-yl)-4-fluoro-5-phenyl-1H-indole-7-carboxamide] |
| 0.00501 to 1 µM | NC(=O)c1cc(-c2ccoc2)cc2c([C@H]3CCS(=O)(=O)[C@@H](c4ccccc4)C3)c[nH]c12 (racemic) [Example 250, 3-(1,1-Dioxido-2-cis-phenyltetrahydro-2H-thiopyran-4-yl)-5-(3-furanyl)-1H-indole-7-carboxamide] |
| 0.00501 to 1 µM | NC(=O)c1cc(-c2ccsc2)cc2c(CC3CCS(=O)(=O)C3)c[nH]c12 (stereo not drawn) [Example 260, 3-[(1,1-Dioxidotetrahydro-3-thienyl)methyl]-5-(3-thienyl)-1H-indole-7-carboxamide] |
| > 1 µM | NC(=O)c1cc(-c2ccoc2)cc2c(C3CCS(=O)(=O)C3)c[nH]c12 (stereo not drawn) [Example 189, 3-(1,1-Dioxidotetrahydro-3-thienyl)-5-(3-furanyl)-1H-indole-7-carboxamide] |
| 0.00501 to 1 µM | NC(=O)c1cc(-c2ccoc2)cc2c(CC3CCS(=O)(=O)CC3)c[nH]c12 [Example 253, 3-[(1,1-dioxidotetrahydro-2H-thiopyran-4-yl)methyl]-5-(3-furanyl)-1H-indole-7-carboxamide] |
| 0.00501 to 1 µM | CC1(C)CC(c2c[nH]c3c(C(N)=O)cc(-c4csc(CN5CCC5)c4)cc23)CCS1(=O)=O (stereo not drawn) [Example 234, 5-[5-(1-Azetidinylmethyl)-3-thienyl]-3-(2,2-dimethyl-1,1-dioxidotetrahydro-2H-thiopyran-4-yl)-1H-indole-7-carboxamide] |
| 0.00501 to 1 µM | NC(=O)c1cc(-c2ccsc2)cc2c([C@@H]3CCS(=O)(=O)[C@H](c4ccccc4)C3)c[nH]c12 [Example 247, 3-[(2S,4R)1,1-dioxido-2-phenyltetrahydro-2H-thiopyran-4-yl]-5-(3-thienyl)-1H-indole-7-carboxamide] |
| 0.00501 to 1 µM | NC(=O)c1cc(-c2ccccc2)cc2c(CC3CCS(=O)(=O)C3)c[nH]c12 (stereo not drawn) [Example 259, 3-[(1,1-Dioxidotetrahydro-3-thienyl)methyl]-5-phenyl-1H-indole-7-carboxamide] |
| 0.00501 to 1 µM | NC(=O)c1cc(-c2csc(CN3CCCCCC3)c2)cc2c(C3CC4CCC(C3)S4(=O)=O)c[nH]c12 (stereo not drawn) [Example 203, 3-[(3-endo)-8,8-Dioxido-8-thiabicyclo[3.2.1]oct-3-yl]-5-[5-(hexahydro-1H-azepin-1-ylmethyl)-3-thienyl]-1H-indole-7-carboxamide] |
| 0.00501 to 1 µM | CC(C)[C@H]1C[C@H](c2c[nH]c3c(C(N)=O)cc(-c4ccco4)cc23)CCS1(=O)=O (racemic) [Example 244, (racemic)-5-(2-Furanyl)-3-[trans-2-(1-methylethyl)-1,1-dioxidotetrahydro-2H-thiopyran-4-yl]-1H-indole-7-carboxamide] |
| 0.00501 to 1 µM | NC(=O)c1cc(-c2ccc3sccc3c2)cc2c(C3CCS(=O)(=O)C3)c[nH]c12 (stereo not drawn) [Example 191, 5-(1-Benzothien-5-yl)-3-(1,1-dioxidotetrahydro-3-thienyl)-1H-indole-7-carboxamide] |
| 0.00501 to 1 µM | CC1(C)C[C@H](c2c[nH]c3c(C(N)=O)cc(-c4ccc(F)cc4)cc23)CCS1(=O)=O [Example 225, 3-[(4R)-2,2-dimethyl-1,1-dioxidotetrahydro-2H-thiopyran-4-yl]-5-(4-fluorophenyl)-1H-indole-7-carboxamide] |
| 0.00501 to 1 µM | CC1(C)CC(c2c[nH]c3c(C(N)=O)cc(-c4ccc(S(=O)(=O)N5CCCC5)s4)cc23)CCS1(=O)=O (stereo not drawn) [Example 239, 3-(2,2-Dimethyl-1,1-dioxidotetrahydro-2H-thiopyran-4-yl)-5-[5-(1-pyrrolidinylsulfonyl)-2-thienyl]-1H-indole-7-carboxamide] |

— US8071584B2 (GlaxoSmithKline LLC, priority 2007, dated 2011)
